The values that follow come from the SangsterLogP compilation.

The nature of one data set: method code SF, from Recanatgini, M.; Leoni, A.; Baraldi, G. (1991). Partition coefficients of 3-methyl-4-nitropyrazole-5-carboxamides. 16, 127-130.
Details: not given
Usually logP stands for a log measure of how a compound divides between an organic and an aqueous phase. Read a low logP as a more hydrophilic compound. Take `Cc1ccc(NC(=O)c2[nH]nc(C)c2[N+](=O)[O-])cc1`: the logP turned out to be 2.34.

Staying with this data set, now noted: pH 1.0.
A word on the logD: it is the decadic logarithm of the distribution of all forms, ionised or not, between an organic phase and buffer at a given pH. A low value points to lower lipophilicity. The compound `Cc1[nH]nc(C(=O)N2CCCCC2)c1[N+](=O)[O-]` came in with a logD of 0.79.

In turn, `Cc1n[nH]c(C(=O)NCc2ccccc2)c1[N+](=O)[O-]` returned a logD of 1.49.

With `CCCNC(=O)c1[nH]nc(C)c1[N+](=O)[O-]`, the logD came out at 0.65.

In turn, `CCCCCCNC(=O)c1[nH]nc(C)c1[N+](=O)[O-]` displayed a logD of 2.46.

`CCCCCCCCNC(=O)c1[nH]nc(C)c1[N+](=O)[O-]` showed a logD of 3.48.

With `CCNC(=O)c1n[nH]c(C)c1[N+](=O)[O-]`, the logD turned out to be 0.13.

As to `Cc1n[nH]c(C(=O)NC2CCCC2)c1[N+](=O)[O-]`, the logD is 1.24.

Compound `Cc1n[nH]c(C(=O)Nc2ccccc2)c1[N+](=O)[O-]` came in with a logD of 1.81.

`Cc1n[nH]c(C(=O)N(C)C2CCCCC2)c1[N+](=O)[O-]` had a logD of 1.68.

In turn, `CCCCCCCCCCNC(=O)c1[nH]nc(C)c1[N+](=O)[O-]` showed a logD of 4.48.

Consider `Cc1n[nH]c(C(=O)N(C)Cc2ccccc2)c1[N+](=O)[O-]`, for which the logD came out at 1.65.

`Cc1n[nH]c(C(N)=O)c1[N+](=O)[O-]` gave a logD of -0.38.

In the case of `CCCCNC(=O)c1[nH]nc(C)c1[N+](=O)[O-]`, the logD stood at 1.27.

In turn, `Cc1n[nH]c(C(=O)NCCc2ccccc2)c1[N+](=O)[O-]` displayed a logD of 1.82.

Compound `Cc1n[nH]c(C(=O)NC23CC4CC(CC(C4)C2)C3)c1[N+](=O)[O-]` yielded a logD of 2.83.

`Cc1n[nH]c(C(=O)N2CCCCCC2)c1[N+](=O)[O-]` returned a logD of 1.15.

`Cc1n[nH]c(C(=O)N2CCCC2)c1[N+](=O)[O-]` displayed a logD of 0.25.

`CNC(=O)c1n[nH]c(C)c1[N+](=O)[O-]` registered a logD of -0.23.

For `Cc1n[nH]c(C(=O)NC2CCCCC2)c1[N+](=O)[O-]`, the logD came to 1.71.

For `Cc1[nH]nc(C(=O)NC2CC2)c1[N+](=O)[O-]`, the logD came to 0.25.
